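Assay format: 96-well plates, 48-hour exposure. Abbreviation: GI50, concentration required for 50% inhibition of growth.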 Active and inactive are the calls of the source. Rule as the data show it: active = GI50 up to about 1.1 µM and inactive = higher.
What was measured:
Assay in all cases: NCI tumour cell line growth inhibition, 48 h
A498 = tested on: A498
SF-295 = tested on: SF-295
UACC-257 = tested on: UACC-257
OVCAR-8 = tested on: OVCAR-8
Hs-578T = tested on: Hs-578T
SK-MEL-5 = tested on: SK-MEL-5
IGROV-1 = tested on: IGROV-1
UACC-62 = tested on: UACC-62
SW-620 = tested on: SW-620
CAKI-1 = tested on: CAKI-1
OVCAR-5 = tested on: OVCAR-5
SF-268 = tested on: SF-268
ACHN = tested on: ACHN
SK-MEL-28 = tested on: SK-MEL-28
TK-10 = tested on: TK-10
NCI-H460 = tested on: NCI-H460
RPMI-8226 = tested on: RPMI-8226
HCC 2998 = tested on: HCC 2998
LOX IMVI = tested on: LOX IMVI

Measured: GI50

CC(C)c1cc(C(F)(F)F)nc(NNc2nc(C(C)C)cc(C(F)(F)F)n2)n1
inactive: A498 > 100 µM | SF-295 37.1 µM | UACC-257 15.9 µM | OVCAR-8 > 100 µM | Hs-578T 79.4 µM | SK-MEL-5 > 100 µM | IGROV-1 > 100 µM | UACC-62 80 µM | SW-620 > 100 µM | CAKI-1 64.7 µM | OVCAR-5 > 100 µM | SF-268 > 100 µM | ACHN 56.8 µM | SK-MEL-28 > 100 µM | TK-10 19.1 µM | NCI-H460 62.8 µM | RPMI-8226 > 100 µM

CSc1nc(O)c(C#N)c(-c2ccccc2)n1
inactive: A498 > 100 µM | SF-295 > 100 µM | UACC-257 > 100 µM | OVCAR-8 > 100 µM | Hs-578T > 100 µM | SK-MEL-5 > 100 µM | IGROV-1 > 100 µM | UACC-62 > 100 µM | SW-620 > 100 µM | CAKI-1 > 100 µM | HCC 2998 > 100 µM | OVCAR-5 > 100 µM | SF-268 > 100 µM | ACHN > 100 µM | SK-MEL-28 > 100 µM | TK-10 > 100 µM | NCI-H460 > 100 µM | RPMI-8226 > 100 µM

O=[N+]([O-])c1ccc(N/N=C2\C=CCCC2)c([N+](=O)[O-])c1
inactive: SF-295 31.3 µM | UACC-257 > 100 µM | OVCAR-8 > 100 µM | Hs-578T 27.3 µM | SK-MEL-5 > 100 µM | IGROV-1 73.1 µM | UACC-62 > 100 µM | SW-620 > 100 µM | CAKI-1 > 100 µM | OVCAR-5 > 100 µM | SF-268 > 100 µM | ACHN 81.8 µM | SK-MEL-28 > 100 µM | TK-10 > 100 µM | NCI-H460 > 100 µM | LOX IMVI > 100 µM | RPMI-8226 > 100 µM

Cn1c(-c2cccs2)cc(-c2ccsc2)c1-c1ccsc1
inactive: A498 > 100 µM | SF-295 > 100 µM | UACC-257 > 100 µM | OVCAR-8 > 100 µM | Hs-578T > 100 µM | SK-MEL-5 36.1 µM | IGROV-1 > 100 µM | UACC-62 > 100 µM | SW-620 > 100 µM | CAKI-1 > 100 µM | HCC 2998 > 100 µM | OVCAR-5 > 100 µM | SF-268 > 100 µM | ACHN > 100 µM | SK-MEL-28 > 100 µM | TK-10 > 100 µM | NCI-H460 > 100 µM

Cc1sc(Nc2ccc(Nc3nc(-c4ccccc4)c(C)s3)cc2)nc1-c1ccccc1
inactive: A498 21.8 µM | SF-295 95.9 µM | UACC-257 43.1 µM | OVCAR-8 > 100 µM | Hs-578T > 100 µM | SK-MEL-5 22.6 µM | IGROV-1 > 100 µM | UACC-62 54.3 µM | SW-620 40.2 µM | CAKI-1 88.1 µM | HCC 2998 16.9 µM | OVCAR-5 > 100 µM | SF-268 > 100 µM | ACHN 36.5 µM | SK-MEL-28 > 100 µM | TK-10 57.8 µM | NCI-H460 18.2 µM | LOX IMVI 40.6 µM

COC(=O)[C@H]1CO[C@H]2C/C(C)=C/CC/C(C)=C/CC[C@@]3(C)O[C@@H]3C[C@H]21
inactive: A498 22.9 µM | SF-295 17.9 µM | UACC-257 18.4 µM | OVCAR-8 14.7 µM | Hs-578T 14 µM | SK-MEL-5 8.2 µM | IGROV-1 16 µM | UACC-62 8.87 µM | SW-620 10.4 µM | CAKI-1 36.1 µM | HCC 2998 9.38 µM | OVCAR-5 > 50 µM | SF-268 19.6 µM | ACHN 17.5 µM | SK-MEL-28 13.4 µM | TK-10 20 µM | NCI-H460 9.73 µM | RPMI-8226 14.1 µM

CC1(C)S[C@@H]2[C@H](NC(=O)[C@H](N)c3ccccc3)C(=O)N2[C@H]1C(=O)O [AMPICILLIN]
inactive: SF-295 > 100 µM | UACC-257 > 100 µM | OVCAR-8 > 100 µM | Hs-578T 63.8 µM | SK-MEL-5 > 100 µM | IGROV-1 > 100 µM | UACC-62 > 100 µM | SW-620 > 100 µM | CAKI-1 > 100 µM | HCC 2998 > 100 µM | OVCAR-5 > 100 µM | SF-268 > 100 µM | ACHN > 100 µM | SK-MEL-28 > 100 µM | TK-10 > 100 µM | NCI-H460 > 100 µM | LOX IMVI > 100 µM | RPMI-8226 > 100 µM

COc1ccc(-c2[nH]c3c4c(nc5c(c24)C(=O)CC(C)(C)C5)CC(C)(C)C3)cc1
inactive: A498 28.6 µM | SF-295 57.4 µM | UACC-257 68.5 µM | OVCAR-8 52.6 µM | Hs-578T 93.1 µM | SK-MEL-5 63.1 µM | UACC-62 > 100 µM | SW-620 > 100 µM | CAKI-1 70.5 µM | HCC 2998 55.6 µM | OVCAR-5 > 100 µM | SF-268 95.5 µM | ACHN 95.5 µM | SK-MEL-28 > 100 µM | TK-10 > 100 µM | NCI-H460 72.3 µM | LOX IMVI 68.7 µM

CC(NC(=O)C(N)CC(=O)O)NC(=O)N(C)C(C)(C)C (stereo not given)
inactive: SF-295 > 100 µM | UACC-257 > 100 µM | OVCAR-8 > 100 µM | Hs-578T > 100 µM | SK-MEL-5 > 100 µM | IGROV-1 > 100 µM | UACC-62 > 100 µM | SW-620 > 100 µM | CAKI-1 > 100 µM | HCC 2998 > 100 µM | OVCAR-5 > 100 µM | SF-268 > 100 µM | ACHN > 100 µM | SK-MEL-28 > 100 µM | TK-10 > 100 µM | NCI-H460 > 100 µM | LOX IMVI > 100 µM | RPMI-8226 > 100 µM

c1ccc(C[n+]2ccc3c(c2)CCCC3)cc1
inactive: SF-295 77.3 µM | UACC-257 33.8 µM | OVCAR-8 > 100 µM | Hs-578T 49.9 µM | SK-MEL-5 19.6 µM | IGROV-1 > 100 µM | UACC-62 > 100 µM | SW-620 > 100 µM | CAKI-1 > 100 µM | HCC 2998 22.9 µM | OVCAR-5 > 100 µM | SF-268 > 100 µM | ACHN 64.6 µM | SK-MEL-28 > 100 µM | TK-10 > 100 µM | NCI-H460 78.7 µM | LOX IMVI 92.7 µM | RPMI-8226 65.9 µM

COc1ccc2c(c1O)C13CCN(C)C(C2)C1CCC1(C3)OCCO1 (stereo not given)
inactive: SF-295 > 100 µM | UACC-257 > 100 µM | OVCAR-8 > 100 µM | Hs-578T > 100 µM | SK-MEL-5 > 100 µM | IGROV-1 > 100 µM | UACC-62 > 100 µM | SW-620 > 100 µM | CAKI-1 > 100 µM | HCC 2998 > 100 µM | OVCAR-5 > 100 µM | SF-268 > 100 µM | ACHN > 100 µM | SK-MEL-28 > 100 µM | TK-10 > 100 µM | NCI-H460 > 100 µM | LOX IMVI > 100 µM | RPMI-8226 > 100 µM

COc1ccc(C2CC(c3c(O)ccc4ccccc34)=NN2C(C)=O)cc1OC (stereo not given)
inactive: A498 24.3 µM | SF-295 37.4 µM | UACC-257 34.8 µM | OVCAR-8 34.4 µM | Hs-578T 36.9 µM | SK-MEL-5 21.9 µM | IGROV-1 38.7 µM | UACC-62 15.1 µM | SW-620 32.9 µM | CAKI-1 36.5 µM | HCC 2998 23.7 µM | OVCAR-5 40.6 µM | SF-268 31.4 µM | ACHN 35.4 µM | SK-MEL-28 28.8 µM | TK-10 53.3 µM | NCI-H460 28.1 µM | RPMI-8226 12 µM

CC1(C)Oc2ccc3c(=O)c(-c4ccccc4)c(-c4ccccc4)oc3c2C1C(=O)O (stereo not given)
inactive: A498 > 100 µM | SF-295 > 100 µM | UACC-257 > 100 µM | OVCAR-8 > 100 µM | Hs-578T 64.9 µM | SK-MEL-5 > 100 µM | IGROV-1 > 100 µM | UACC-62 > 100 µM | CAKI-1 > 100 µM | HCC 2998 > 100 µM | OVCAR-5 > 100 µM | SF-268 > 100 µM | TK-10 > 100 µM

CC(C)Oc1c(C2(c3ccccc3O)SCCCS2)c(=O)c1=O
inactive: A498 62.8 µM | SF-295 > 100 µM | UACC-257 > 100 µM | OVCAR-8 > 100 µM | Hs-578T > 100 µM | SK-MEL-5 > 100 µM | IGROV-1 30.3 µM | UACC-62 98.6 µM | SW-620 > 100 µM | CAKI-1 > 100 µM | OVCAR-5 38.7 µM | SF-268 > 100 µM | ACHN > 100 µM | SK-MEL-28 > 100 µM | TK-10 > 100 µM | NCI-H460 > 100 µM | LOX IMVI > 100 µM

COc1ccc(Oc2cccc(/C=C3/C(=O)Nc4ccccc43)c2)cc1
inactive: A498 12.2 µM | SF-295 7.01 µM | UACC-257 5.79 µM | OVCAR-8 16.9 µM | Hs-578T 15.4 µM | SK-MEL-5 2.62 µM | IGROV-1 7.91 µM | SW-620 11.1 µM | CAKI-1 6.87 µM | HCC 2998 9.31 µM | OVCAR-5 17.7 µM | SF-268 11.4 µM | ACHN 11.6 µM | SK-MEL-28 7.06 µM | TK-10 15.2 µM | NCI-H460 11.3 µM

c1ccc2c(Cc3nnc4sc(SSc5nn6c(Cc7c[nH]c8ccccc78)nnc6s5)nn34)c[nH]c2c1
inactive: A498 11.3 µM | SF-295 19.5 µM | UACC-257 33 µM | OVCAR-8 26.4 µM | Hs-578T 23.8 µM | SK-MEL-5 11.2 µM | IGROV-1 2.99 µM | UACC-62 16 µM | SW-620 16.7 µM | CAKI-1 18.7 µM | HCC 2998 16.7 µM | OVCAR-5 26.2 µM | SF-268 21.8 µM | ACHN 26.4 µM | SK-MEL-28 33.5 µM | TK-10 38.7 µM | NCI-H460 30.4 µM
